US11725036B2, “Modified lipidated relaxin B chain peptides and their therapeutic use” (Sanofi, priority 2018, dated 2023)
Converted amounts (≈) assume the structure as drawn. Where two headings read alike, the source gives them in different places. Starred links: 1 amine or outer side, 2 acyl side, 3 side chain; linkers in the order of their positions; H or OH if unused. Non-standard residues stand in square brackets, D forms with d. Residues, ends and D or L forms follow the SMILES beside them. Groups on a side chain read outwards from the residue. *: point of attachment. X10 = CCCCCCCCCCCCCC(=O)N[C@@H](CCC(=O)N[C@@H](CCC(=O)N[C@@H](CCC(=O)N[C@@H](CCC(=O)NCCCOCCOCCOCCCNC(=O)CCC(=O)NCCCOCCOCCOCCCNC(=O)CCC(=O)NCCCOCCOCCOCCCN*)C(=O)O)C(=O)O)C(=O)O)C(=O)O; X1 = CCCCCCCCCCCCCCCC(=O)N[C@@H](CCC(=O)N[C@@H](CCC(=O)N[C@@H](CCC(=O)NCCCOCCOCCOCCCNC(=O)CCC(=O)NCCCOCCOCCOCCCNC(=O)CCC(=O)NCCCOCCOCCOCCCN*)C(=O)O)C(=O)O)C(=O)O; X6 = CCCCCCCCCCCCCC(=O)N[C@@H](CCC(=O)N[C@@H](CCC(=O)N[C@@H](CCC(=O)NCCCOCCOCCOCCCNC(=O)CCC(=O)NCCCOCCOCCOCCCNC(=O)CCC(=O)NCCCOCCOCCOCCCN*)C(=O)O)C(=O)O)C(=O)O; X2 = CCCCCCCCCCCCCCCC(=O)N[C@@H](CCC(=O)N[C@@H](CCC(=O)N[C@@H](CCC(=O)NCCCOCCOCCOCCCNC(=O)CCC(=O)NCCCOCCOCCOCCCN*)C(=O)O)C(=O)O)C(=O)O; γGlu = O=C(O)[C@H](CCC(=O)[*:2])N[*:1]; Palmitoyl = CCCCCCCCCCCCCCCC(=O)*; Suc = O=C(CCC(=O)[*:2])[*:1]; αMeK = C[C@](N)(CCCCN)C(=O)O; AEEA = NCCOCCOCC(=O)O; Aib = CC(C)(N)C(=O)O

Assays:
RXFP1 = molecular target: T1, RXFP1 (Homo sapiens, UniProt Q9HBX9); assay: OVCAR5 cAMP assay (HTRF); type: cell-based; details: for EC50: OVCAR 5 cells expressing endogenous RXFP1, cAMP readout; for Emax: OVCAR 5 cells, maximal cAMP relative to H2-relaxin
T1 construct: OVCAR5 cells expressing endogenous RXFP1; endogenous in cells; host or cells: OVCAR5
T1 sequence (Q9HBX9 1-757): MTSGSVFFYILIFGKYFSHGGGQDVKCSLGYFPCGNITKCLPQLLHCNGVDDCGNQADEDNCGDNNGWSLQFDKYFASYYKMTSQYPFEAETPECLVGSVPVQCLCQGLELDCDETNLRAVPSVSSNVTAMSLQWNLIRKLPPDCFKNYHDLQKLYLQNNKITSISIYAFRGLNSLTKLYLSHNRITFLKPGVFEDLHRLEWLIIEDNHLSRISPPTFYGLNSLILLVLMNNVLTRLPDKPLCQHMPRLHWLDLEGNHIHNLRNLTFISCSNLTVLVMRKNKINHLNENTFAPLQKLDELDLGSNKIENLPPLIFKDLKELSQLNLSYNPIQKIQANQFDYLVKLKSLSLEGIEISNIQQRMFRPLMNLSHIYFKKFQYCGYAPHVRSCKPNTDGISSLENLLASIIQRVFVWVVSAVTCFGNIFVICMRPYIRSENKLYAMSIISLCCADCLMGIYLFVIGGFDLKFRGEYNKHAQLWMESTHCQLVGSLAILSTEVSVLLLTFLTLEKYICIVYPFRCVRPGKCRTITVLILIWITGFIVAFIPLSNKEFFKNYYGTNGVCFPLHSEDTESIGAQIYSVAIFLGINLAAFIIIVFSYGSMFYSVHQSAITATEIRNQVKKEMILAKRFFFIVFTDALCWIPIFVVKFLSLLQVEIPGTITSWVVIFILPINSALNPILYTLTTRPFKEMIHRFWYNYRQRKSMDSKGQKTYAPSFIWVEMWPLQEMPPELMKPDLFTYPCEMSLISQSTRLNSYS
Method in brief: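 Peptide agonism measured as intracellular cAMP (HTRF) after 30 min at 37° C in serum-free medium, following 40 min 1 mM IBMX preincubation of OVCAR5 cells. Nonlinear regression gave EC50; Emax % = 100 × compound maximal cAMP / H2-relaxin maximal cAMP.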

[1] = Solubility testing in buffer; type: physicochemical; details: target solubility 10.0 mg/ml
Experimental: Prior to the testing of solubility of a peptide batch, its purity (HPLC-UV) was determined.
Acetate Buffer 50 mM pH4.5: 0.75 g C2H3C02Na,3H2O (Sigma S7545)+0.35 ml CH3CO2H 100% solution dissolved in Millipore water, adjusted to pH with diluted (1:1) CH3CO2H and diluted to 250 ml with Millipore water.
In a 4 ml Ependorph vial, an accurately weighed sample of compound was diluted in study media to obtain target concentration of 2, 6 or 10 mg/ml of pure compound. The sample vials were shacked (rock 'roll shaker) for ˜19 h. 300 μL aliquots were filtered through a Millipore “Solvinert” plate (0.45 μm-PTFE hydrophilic).
pH was measured with a micro electrode
Waters Acquity UPLC System with DAD detector
Column: Waters Peptide Column CSH C18 (130 Å; 1.7 μm; 50*2.1 mm)
Column temperature: 60° C.
Full loop (about 5 μL)—overfill factor 5
Weak et Strong wash: H2O/ACN (75/25; V/V); Seal wash: H2O/IsOH (95/5; V/V). Mobile phase:
Solvent A: 0.05% TFA in H2O; Solvent B: 0.035% TFA in CH3CN
Gradient: from 0 to 12 min B=2% to 60%, from 12 to 14 min B=60% to 100%. Column washing 100% B 1 min, column equilibration 2% B 2.5 min.
UV detector: wavelength: 220 nm.

[2] = acetate buffer 50 mM pH 4.5, read-out: Solubility Acetate buffer pH 4.5
[3] = phosphate buffer 50 mM pH 7.4, read-out: Solubility phosphate buffer pH 7.4

## CCCCCCCCCCCCCCCC(=O)N[C@@H](CCC(=O)N[C@@H](CCC(=O)N[C@@H](CCC(=O)NCCOCCOCC(=O)NCCOCCOCC(=O)NCCOCCOCC(=O)NCCOCCOCC(=O)NCCCC[C@H](NC(=O)CNC(=O)[C@H](CCC(=O)O)NC(=O)C(C)(C)NC(=O)C(C)(C)NC(=O)[C@@H](NC(=O)[C@H](CCCCNC(C)=O)NC(=O)[C@H](C)NC(=O)[C@H](CCCNC(=N)N)NC(=O)[C@@H](NC(=O)[C@H](CCCCN)NC(=O)[C@H](CCC(=O)O)NC(=O)[C@H](CCCNC(=N)N)NC(=O)CNC(=O)[C@H](CCC(=O)O)NC(=O)[C@H](CC(C)C)NC(C)=O)C(C)C)[C@@H](C)CC)C(=O)N[C@@H](CO)C(=O)N[C@H](C(=O)N[C@@H](Cc1c[nH]c2ccccc12)C(=O)N[C@@H](CO)C(=O)NC(C)(C)C(=O)N[C@@H](CCCNC(=N)N)C(=O)N[C@@H](CCCCN)C(=O)N[C@@H](CCCCNC(C)=O)C(N)=O)[C@@H](C)O)C(=O)O)C(=O)O)C(=O)O [compound 5] (Ac-LEGREKVRAK(Ac)I[Aib][Aib]EGK([AEEA-AEEA-AEEA-AEEA-γGlu-γGlu-γGlu-Palmitoyl])STWS[Aib]RKK(Ac)-NH2)
RXFP1
  EC50: 9.1 nM
  Emax: 85%
[1]; [2]
  solubility: 6240 µg/mL (≈ 1530 µM)
[1]; [3]
  solubility: 6410 µg/mL (≈ 1570 µM)

## CCCCCCCCCCCCCCCC(=O)N[C@@H](CCC(=O)N[C@@H](CCC(=O)N[C@@H](CCC(=O)NCCCOCCOCCOCCCNC(=O)CCC(=O)NCCCOCCOCCOCCCNC(=O)CCC(=O)NCCCC[C@H](NC(=O)CNC(=O)[C@H](CCC(=O)O)NC(=O)C(C)(C)NC(=O)C(C)(C)NC(=O)[C@@H](NC(=O)[C@H](CCCCNC(C)=O)NC(=O)[C@H](C)NC(=O)[C@H](CCCNC(=N)N)NC(=O)[C@@H](NC(=O)[C@H](CCCCN)NC(=O)[C@H](CCC(=O)O)NC(=O)[C@H](CCCNC(=N)N)NC(=O)CNC(=O)[C@H](CCC(=O)O)NC(=O)[C@H](CC(C)C)NC(C)=O)C(C)C)[C@@H](C)CC)C(=O)N[C@@H](CO)C(=O)N[C@H](C(=O)N[C@@H](Cc1ccccc1)C(=O)N[C@@H](CO)C(=O)N[C@H](CCCCN)C(=O)N[C@@H](CCCNC(=N)N)C(=O)N[C@@H](C)C(=O)N[C@@H](CCCCNC(C)=O)C(N)=O)[C@@H](C)O)C(=O)O)C(=O)O)C(=O)O [compound 16] (Ac-LEGREKVRAK(Ac)I[Aib][Aib]EGK([Suc-X2])STFS[dK]RAK(Ac)-NH2)
RXFP1
  EC50: 6.8 nM
  Emax: 88%
[1]; [2]
  solubility: 6330 µg/mL (≈ 1560 µM)
[1]; [3]
  solubility: 6720 µg/mL (≈ 1660 µM)

## CCCCCCCCCCCCCCCC(=O)N[C@@H](CCC(=O)N[C@@H](CCC(=O)N[C@@H](CCC(=O)NCCCOCCOCCOCCCNC(=O)CCC(=O)NCCCOCCOCCOCCCNC(=O)CCC(=O)NCCCOCCOCCOCCCNC(=O)CCC(=O)NCCCC[C@H](NC(=O)CNC(=O)[C@H](CCC(=O)O)NC(=O)C(C)(C)NC(=O)C(C)(C)NC(=O)[C@@H](NC(=O)[C@H](CCCCNC(C)=O)NC(=O)[C@H](C)NC(=O)[C@H](CCCNC(=N)N)NC(=O)[C@@H](NC(=O)[C@H](CCCCN)NC(=O)[C@H](CCC(=O)O)NC(=O)[C@H](CCCNC(=N)N)NC(=O)CNC(=O)[C@H](CCC(=O)O)NC(=O)[C@H](CC(C)C)NC(C)=O)C(C)C)[C@@H](C)CC)C(=O)N[C@@H](CO)C(=O)N[C@H](C(=O)N[C@@H](Cc1ccccc1)C(=O)N[C@H](C(=O)N[C@@H](CCCNC(=N)N)C(=O)N[C@@H](CCCNC(=N)N)C(=O)N[C@@H](C)C(=O)N[C@@H](CCCCNC(C)=O)C(N)=O)C(C)C)[C@@H](C)O)C(=O)O)C(=O)O)C(=O)O [compound 94] (Ac-LEGREKVRAK(Ac)I[Aib][Aib]EGK([Suc-X1])STFVRRAK(Ac)-NH2)
RXFP1
  EC50: 1.74 nM
  Emax: 88%

## CCCCCCCCCCCCCC(=O)N[C@@H](CCC(=O)N[C@@H](CCC(=O)N[C@@H](CCC(=O)NCCCOCCOCCOCCCNC(=O)CCC(=O)NCCCOCCOCCOCCCNC(=O)CCC(=O)NCCCOCCOCCOCCCNC(=O)CCC(=O)NCCCC[C@H](NC(=O)CNC(=O)[C@H](CCC(=O)O)NC(=O)C(C)(C)NC(=O)C(C)(C)NC(=O)[C@@H](NC(=O)[C@H](CCCCNC(C)=O)NC(=O)[C@H](C)NC(=O)[C@H](CCCNC(=N)N)NC(=O)[C@@H](NC(=O)[C@H](CCCCN)NC(=O)[C@H](CCC(=O)O)NC(=O)[C@H](CCCNC(=N)N)NC(=O)CNC(=O)[C@H](CCC(=O)O)NC(=O)[C@H](CC(C)C)NC(C)=O)C(C)C)[C@@H](C)CC)C(=O)N[C@@H](CO)C(=O)N[C@H](C(=O)N[C@@H](Cc1ccccc1)C(=O)N[C@@H](CO)C(=O)N[C@@](C)(CCCCN)C(=O)N[C@@H](CCCNC(=N)N)C(=O)N[C@@H](C)C(=O)N[C@@H](CCCCNC(C)=O)C(N)=O)[C@@H](C)O)C(=O)O)C(=O)O)C(=O)O [compound 95] (Ac-LEGREKVRAK(Ac)I[Aib][Aib]EGK([Suc-X6])STFS[αMeK]RAK(Ac)-NH2)
RXFP1
  EC50: 1.8 nM
  Emax: 91%

## CCCCCCCCCCCCCC(=O)N[C@@H](CCC(=O)N[C@@H](CCC(=O)N[C@@H](CCC(=O)NCCCOCCOCCOCCCNC(=O)CCC(=O)NCCCOCCOCCOCCCNC(=O)CCC(=O)NCCCOCCOCCOCCCNC(=O)CCC(=O)NCCCC[C@H](NC(=O)CNC(=O)[C@H](CCC(=O)O)NC(=O)C(C)(C)NC(=O)C(C)(C)NC(=O)[C@@H](NC(=O)[C@H](CCCCNC(C)=O)NC(=O)[C@H](C)NC(=O)[C@H](CCCNC(=N)N)NC(=O)[C@@H](NC(=O)[C@H](CCCCN)NC(=O)[C@H](CCC(=O)O)NC(=O)[C@H](CCCNC(=N)N)NC(=O)CNC(=O)[C@H](CCC(=O)O)NC(=O)[C@H](CC(C)C)NC(C)=O)C(C)C)[C@@H](C)CC)C(=O)N[C@@H](CO)C(=O)N[C@H](C(=O)N[C@@H](Cc1ccccc1)C(=O)N[C@@H](CO)C(=O)N[C@@](C)(CCCCN)C(=O)N[C@@H](CCCNC(=N)N)C(=O)N[C@@H](C)C(=O)N[C@@H](CCCCN)C(N)=O)[C@@H](C)O)C(=O)O)C(=O)O)C(=O)O [compound 96] (Ac-LEGREKVRAK(Ac)I[Aib][Aib]EGK([Suc-X6])STFS[αMeK]RAK-NH2)
RXFP1
  EC50: 0.88 nM
  Emax: 92%

## CCCCCCCCCCCCCC(=O)N[C@@H](CCC(=O)N[C@@H](CCC(=O)N[C@@H](CCC(=O)N[C@@H](CCC(=O)NCCCOCCOCCOCCCNC(=O)CCC(=O)NCCCOCCOCCOCCCNC(=O)CCC(=O)NCCCOCCOCCOCCCNC(=O)CCC(=O)NCCCC[C@H](NC(=O)CNC(=O)[C@H](CCC(=O)O)NC(=O)C(C)(C)NC(=O)C(C)(C)NC(=O)[C@@H](NC(=O)[C@H](CCCCNC(C)=O)NC(=O)[C@H](C)NC(=O)[C@H](CCCNC(=N)N)NC(=O)[C@@H](NC(=O)[C@H](CCCCN)NC(=O)[C@H](CCC(=O)O)NC(=O)[C@H](CCCNC(=N)N)NC(=O)CNC(=O)[C@H](CCC(=O)O)NC(=O)[C@H](CC(C)C)NC(C)=O)C(C)C)[C@@H](C)CC)C(=O)N[C@@H](CO)C(=O)N[C@H](C(=O)N[C@@H](Cc1ccccc1)C(=O)N[C@@H](CO)C(=O)N[C@@](C)(CCCCN)C(=O)N[C@@H](CCCNC(=N)N)C(=O)N[C@@H](C)C(=O)N[C@@H](CCCCN)C(N)=O)[C@@H](C)O)C(=O)O)C(=O)O)C(=O)O)C(=O)O [compound 97] (Ac-LEGREKVRAK(Ac)I[Aib][Aib]EGK([Suc-X10])STFS[αMeK]RAK-NH2)
RXFP1
  EC50: 0.29 nM
  Emax: 98%
